14 compounds from patent US8796328B2, “TRPV1 antagonists” (AbbVie Inc., priority 2012, dated 2014) can be followed below.

The target in test [1] is T1, human TRPV1 receptor (hTRPV1) (Homo sapiens (Human), UniProt Q8NER1). Kind of test: Capsaicin activation assay (FLIPR intracellular Ca2+). It counts as cell-based. The settings on record: inhibition of capsaicin-induced intracellular Ca2+ increase; compounds added 3 minutes prior to capsaicin; read-out: hTRPV1 cap. IC50. Here is the method: Dulbecco's modified Eagle medium (D-MEM) (with 4.5 mg/mL glucose) and fetal bovine serum were obtained from Hyclone Laboratories, Inc. (Logan, Utah). Dulbecco's phosphate-buffered saline (D-PBS) (with 1 mg/mL glucose and 3.6 mg/l Na pyruvate, without phenol red), L-glutamine, hygromycin B, and Lipofectamine® were obtained from Life Technologies (Grand Island, N.Y.). G418 sulfate was obtained from Calbiochem-Novabiochem Corp. (San Diego, Calif.). Capsaicin (8-methyl-N-vanillyl-6-nonenamide) was obtained from Sigma-Aldrich, Co. (St. Louis, Mo.). Fluo-4 AM (N-[4-[6-[(acetyloxy)methoxy]-2,7-difluoro-3-oxo-3H-xanthen-9-yl]-2-[2-[2-[bis[2-[(acetyloxy)methoxy]-2-oxyethyl]amino]-5-methylphenoxy]ethoxy]phenyl]-N-[2-[(acetyloxy)methoxy]-2-oxyethyl]-glycine, (acetyloxy)methyl ester) was purchased from Molecular Probes (Eugene, Oreg.).
T1 sequence (Q8NER1 whole entry): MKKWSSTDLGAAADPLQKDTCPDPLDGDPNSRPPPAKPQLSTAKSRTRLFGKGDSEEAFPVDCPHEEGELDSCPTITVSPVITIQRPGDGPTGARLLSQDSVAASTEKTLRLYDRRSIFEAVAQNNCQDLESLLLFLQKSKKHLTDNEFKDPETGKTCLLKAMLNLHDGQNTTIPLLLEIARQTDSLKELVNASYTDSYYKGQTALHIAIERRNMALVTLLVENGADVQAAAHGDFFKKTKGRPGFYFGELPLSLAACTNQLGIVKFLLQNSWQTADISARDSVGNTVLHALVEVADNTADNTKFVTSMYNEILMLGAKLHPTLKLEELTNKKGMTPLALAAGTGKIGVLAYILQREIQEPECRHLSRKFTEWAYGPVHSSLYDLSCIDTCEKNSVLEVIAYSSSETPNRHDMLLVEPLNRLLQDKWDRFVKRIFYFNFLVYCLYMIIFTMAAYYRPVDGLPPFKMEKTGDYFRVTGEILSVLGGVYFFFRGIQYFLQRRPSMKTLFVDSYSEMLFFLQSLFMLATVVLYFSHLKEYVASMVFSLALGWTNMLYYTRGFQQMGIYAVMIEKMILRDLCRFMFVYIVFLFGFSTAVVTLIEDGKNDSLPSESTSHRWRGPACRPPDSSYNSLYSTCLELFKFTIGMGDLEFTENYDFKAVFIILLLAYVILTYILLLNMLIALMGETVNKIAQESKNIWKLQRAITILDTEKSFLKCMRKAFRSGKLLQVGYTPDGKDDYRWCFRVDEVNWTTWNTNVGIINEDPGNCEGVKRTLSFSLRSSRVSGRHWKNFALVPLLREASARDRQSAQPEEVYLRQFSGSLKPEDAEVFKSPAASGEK
(§1) The cDNAs for the human TRPV1 receptor (hTRPV1) were isolated by reverse transcriptase-polymerase chain reaction (RT-PCR) from human small intestine poly A+ RNA supplied by Clontech (Palo Alto, Calif.) using primers designed surrounding the initiation and termination codons identical to the published sequences (Hayes et al. Pain 2000, 88, 205-215). The resulting cDNA PCR products were subcloned into pCIneo mammalian expression vector (Promega) and fully sequenced using fluorescent dye-terminator reagents (Prism, Perkin-Elmer Applied Biosystems Division) and a Perkin-Elmer Applied Biosystems Model 373 DNA sequencer or Model 310 genetic analyzer. Expression plasmids encoding the hTRPV1 cDNA were transfected individually into 1321N1 human astrocytoma cells using Lipofectamine®. Forty-eight hours after transfection, the neomycin-resistant cells were selected with growth medium containing 800 μg/mL Geneticin (Gibco BRL). Surviving individual colonies were isolated and screened for TRPV1 receptor activity. Cells expressing recombinant homomeric TRPV1 receptors were maintained at 37° C. in D-MEM containing 4 mM L-glutamine, 300 μg/mL G418 (Cal-biochem) and 10% fetal bovine serum under a humidified 5% CO2 atmosphere.
The functional activity of compounds at the TRPV1 receptor was determined by measurement of intracellular Ca^2+ levels ([Ca^2]i) using the Fluorescence Imaging Plate Reader (FLIPR)^TETRA®. All compounds were tested over a 12-point one-third-log concentration range. Compound stocks, 10 mM, were prepared in DMSO, and diluted serially across a 384-well plate using a Bravo BenchCel workstation (Agilent Technologies, Santa Clara, Calif.). A stock concentration of capsaicin (10 mM) was made in DMSO, and diluted in D-PBS to a final concentration of 200 nM (4×). On the day prior to the experiment, recombinant HEK293 cells that stably express either human or rat TRPV1 (hTRPV1-3) were removed from tissue culture flasks and plated in growth medium into black-walled clear-bottom 384-well Biocoat™ poly-D-lysine assay plates (BD Biosciences, Bedford, Mass.) using a Multidrop® dispenser (ThermoScientific, Waltham, Mass.). On the day of the experiment, growth medium was removed, and the no-wash FLIPR® Calcium-4 dye (λEX=470-495 nm, λEM=515-575 nm; Molecular Devices, Sunnyvale, Calif.) was added to each well using the Multidrop® dispenser. Cells were incubated for 90-120 minutes in the dark at room temperature. Test compounds were added to the cells 3 minutes prior to the addition of 200 nM capsaicin (4×), and the final assay volume was 80 μL. Fluorescence readings were made at 1 to 5 second intervals over the course of the experimental run. The peak increase in relative fluorescence units (minus baseline) was calculated, and expressed as a percentage of the 50 nM capsaicin (control) response. Curve-fits of the data were solved using a four-parameter logistic Hill equation in GraphPad Prism® (GraphPad Software, Inc., San Diego, Calif.), and IC50 values (concentration of the test compounds that inhibits 50% of the intracellular Ca^2+ concentration increase induced by capasin) were calculated.

Test [2] deals with T1, human TRPV1 receptor (hTRPV1). Briefly: Acid activation assay (pH 5.0, FLIPR intracellular Ca2+). It is filed as cell-based. The settings on record: 37.5 μM compound; percentage of the maximal pH 5.0-induced response remaining; read-out: hTRPV1 H+ (max % remain). The procedure:
Dulbecco's modified Eagle's medium (DMEM) with 4.5 mg/mL D-glucose, fetal bovine serum, L-glutamine, and 2-morpholinoethanesulfonic acid (MES) were purchased from Sigma-Aldrich Co. (St. Louis, Mo.). Dulbecco's phosphate-buffered saline (DPBS) with Ca^2+, Mg^2+, and 1 mg/mL D-glucose (pH 7.4), Geneticin®, 0.25% trypsin-1 mM EDTA, and penicillin-streptomycin were purchased from Invitrogen Corp. (Carlsbad, Calif.). The FLIPR® Calcium 4 assay kit was purchased from Molecular Devices (Sunnyvale, Calif.).
as §1, with “DMEM” for “D-MEM”
The functional activity of compounds at the TRPV1 receptor was determined by measurement of intracellular Ca^2+ levels ([Ca^2+]i) using the Fluorescence Imaging Plate Reader (FLIPR)^TETRA®. All compounds were tested over a 12-point one-half-log concentration range. Compound stocks, 10 mM, were prepared in DMSO, and diluted serially across a 384-well plate using a Bravo BenchCel workstation (Agilent Technologies, Santa Clara, Calif.).
On the day of the experiment growth medium was removed, and the no-wash FLIPR®Calcium-4 dye (λEX=470-495 nm, λEM=515-575 nm) was added to each well using the Multidrop® dispenser. Cells were incubated for 90-120 minutes in the dark at 25° C. Test compounds were dissolved in DMSO, and plates were prepared using an Agilent Bravo workstation (Agilent Technologies Inc., Santa Clara, Calif.). Compounds were added to the cells 3 minutes prior to the addition of a pH 5.0 solution. Reagents were delivered at a rate of 40 μL/sec, and the final assay volume was 80 μL. Acidic pH solutions were prepared by titration of DPBS/MES with 1 N HCl. The intensity of the fluorescence was captured and digitally transferred to an interfaced PC.

Broadly, the IC50 is the concentration at which inhibition is half-maximal. For `CC(C)(C)c1ccc2c(c1)CC[C@H]2NC(=O)NCc1ccc(NS(C)(=O)=O)c(F)c1` [Example 1, N-{4-[({[(1R)-5-tert-butyl-2,3-dihydro-1H-inden-1-yl]carbamoyl}amino)methyl]-2-fluorophenyl}methanesulfonamide], in test [1], the concentration for half-maximal inhibition (IC50) stood at 104 nM. Moreover, the remaining activity at 37.5 µM in test [2] came out at 22%.
For `CS(=O)(=O)Nc1ccc(CNC(=O)N[C@@H]2CCc3cc(Cl)ccc32)cc1F` [Example 3, N-{4-[({[(1R)-5-chloro-2,3-dihydro-1H-inden-1-yl]carbamoyl}amino)methyl]-2-fluorophenyl}methanesulfonamide], the IC50 in test [1] is 1810 nM. For the same compound, the remaining activity at 37.5 µM in test [2] was 86%.
In the same order, the values of `CS(=O)(=O)Nc1ccc(CNC(=O)N[C@@H]2CCc3cc(F)ccc32)cc1F` [Example 4, N-{2-fluoro-4-[({[(1R)-5-fluoro-2,3-dihydro-1H-inden-1-yl]carbamoyl}amino)methyl]phenyl}methanesulfonamide] are 16500 nM and 91%.
The matching figures for `CS(=O)(=O)Nc1ccc(CNC(=O)N[C@@H]2CCc3cc(C(F)(F)F)ccc32)cc1F` [Example 5, N-{2-fluoro-4-[({[(1R)-5-(trifluoromethyl)-2,3-dihydro-1H-inden-1-yl]carbamoyl}amino)methyl]phenyl}methanesulfonamide]: 325 nM and 88%.
The matching figures for `CS(=O)(=O)Nc1ccc(CNC(=O)N[C@@H]2CC(CF)(CF)Oc3cc(Cl)ccc32)cc1F` [Example 6, N-{4-[({[(4R)-7-chloro-2,2-bis(fluoromethyl)-3,4-dihydro-2H-chromen-4-yl]carbamoyl}amino)methyl]-2-fluorophenyl}methanesulfonamide]: 2900 nM and 73%.
As to `CC1(C)C[C@@H](NC(=O)NCc2ccc(NS(C)(=O)=O)c(F)c2)c2ccc(F)cc2O1` [Example 7, N-{2-fluoro-4-[({[(4R)-7-fluoro-2,2-dimethyl-3,4-dihydro-2H-chromen-4-yl]carbamoyl}amino)methyl]phenyl}methanesulfonamide], in test [1], the IC50 was 747 nM. The remaining activity at 37.5 µM in test [2] was 18%.
`CCC1(CC)C[C@@H](NC(=O)NCc2ccc(NS(C)(=O)=O)c(F)c2)c2ccc(Cl)c(Cl)c2O1` [Example 8, N-{4-[({[(4R)-7,8-dichloro-2,2-diethyl-3,4-dihydro-2H-chromen-4-yl]carbamoyl}amino)methyl]-2-fluorophenyl}methanesulfonamide]: in test [1], the half-maximal inhibitory concentration (IC50) amounted to 330 nM. In addition, the remaining activity at 37.5 µM in test [2] was determined as 24%.
`CC1(C)C[C@@H](NC(=O)NCc2ccc(NS(C)(=O)=O)c(F)c2)c2ccc(C(F)(F)F)cc2O1` [Example 9, N-{4-[({[(4R)-2,2-dimethyl-7-(trifluoromethyl)-3,4-dihydro-2H-chromen-4-yl]carbamoyl}amino)methyl]-2-fluorophenyl}methanesulfonamide]: in test [1], the 50% inhibitory concentration (IC50) turned out to be 109 nM. For the same compound, the remaining activity at 37.5 µM in test [2] was determined as 70%.
Turning to `CS(=O)(=O)Nc1ccc(CNC(=O)N[C@@H]2CCOc3ccccc32)cc1F` [Example 12, N-[4-({[(4R)-3,4-dihydro-2H-chromen-4-ylcarbamoyl]amino}methyl)-2-fluorophenyl]methanesulfonamide], the IC50 in test [1] was above 37500 nM. Besides, the remaining activity at 37.5 µM in test [2] amounted to 87%.
On to `CCC1(CC)C[C@@H](NC(=O)NCc2ccc(NS(C)(=O)=O)c(F)c2)c2cccc(F)c2O1` [Example 13, N-{4-[({[(4R)-2,2-diethyl-8-fluoro-3,4-dihydro-2H-chromen-4-yl]carbamoyl}amino)methyl]-2-fluorophenyl}methanesulfonamide], for which the IC50 in test [1] was found to be 418 nM. In addition, the remaining activity at 37.5 µM in test [2] was determined as 27%.
`CCC1(CC)C[C@@H](NC(=O)NCc2ccc(NS(C)(=O)=O)c(F)c2)c2ccc(Cl)cc2O1` [Example 14, N-{4-[({[(4R)-7-chloro-2,2-diethyl-3,4-dihydro-2H-chromen-4-yl]carbamoyl}amino)methyl]-2-fluorophenyl}methanesulfonamide]: the IC50 in test [1] came to 209 nM. In addition, in test [2], the remaining activity at 37.5 µM came out at 27%.
Take `CS(=O)(=O)Nc1ccc(CNC(=O)N[C@@H]2CC(CF)(CF)Oc3cc(OC(F)(F)F)ccc32)cc1F` [Example 15, N-{4-[({[(4R)-2,2-bis(fluoromethyl)-7-(trifluoromethoxy)-3,4-dihydro-2H-chromen-4-yl]carbamoyl}amino)methyl]-2-fluorophenyl}methanesulfonamide]: the IC50 in test [1] was found to be 863 nM. In addition, in test [2], the remaining activity at 37.5 µM turned out to be 85%.
In the same order, the values of `CS(=O)(=O)Nc1ccc(CNC(=O)N[C@@H]2CC(CF)(CF)Oc3c(F)cc(F)cc32)cc1F` [Example 16, N-{4-[({[(4R)-6,8-difluoro-2,2-bis(fluoromethyl)-3,4-dihydro-2H-chromen-4-yl]carbamoyl}amino)methyl]-2-fluorophenyl}methanesulfonamide] are 22800 nM and 79%.
With `CS(=O)(=O)Nc1ccc(CNC(=O)N[C@@H]2CC3(CCC3)Oc3ccc(F)cc32)cc1F` [Example 17, N-{2-fluoro-4-[({[(4R)-6-fluoro-3,4-dihydrospiro[chromene-2,1′-cyclobutan]-4-yl]carbamoyl}amino)methyl]phenyl}methanesulfonamide], the concentration for half-maximal inhibition (IC50) in test [1] amounted to 3030 nM. Further, the remaining activity at 37.5 µM in test [2] was determined as 69%.
